Data taken from patent publication US20210128511A1, “PRODRUG COMPOSITIONS AND METHODS OF TREATMENT” (AQUESTIVE THERAPEUTICS, INC., priority 2019, published 2021).
“Also recorded” adds a separate entry of the source.

How the values were obtained:
[1] = Ex vivo permeation study, Franz diffusion cell; format: in vitro ADME, porcine; conditions: for permeation: ex vivo, compared to L-Dipivefrin
Experimental: The Franz diffusion cell apparatus consists of two chambers separated by a membrane. The permeation studies were conducted using porcine buccal mucosa obtained from a slaughterhouse. The tissues were dermatomed to typically […] and mounted in vertical Franz diffusion cells maintained at 37° C. The tissue membrane separates the donor compartment containing the drug mixed with the permeation enhancer solution and the receptor compartment containing the collection media whish was selected to provide sink conditions throughout the experiment. The permeation rate was observed over several hours by analysing drug concentration in the receptor medium.
In one example, a permeation procedure is conducted as follows. A temperature bath is set to 37° C., and receiver media is placed in a water bath to adjust the temperature and begin degassing. A Franz diffusion cell is obtained and prepared. The Franz diffusion cell includes a donor compound, a donor chamber, a membrane, sampling port, receptor chamber, stir bar, and a heater/circulator. A stir bar is inserted into a Franz diffusion cell. Tissue is placed over the Franz diffusion cell, and it is ensured that the tissue covers the entire area with an overlap onto a glass joint. The top of a diffusion cell is placed over the tissue, and the top of the cell is clamped to the bottom. About 5 mL of receptor media is loaded into the receiver area to ensure that no air bubbles are trapped in the received portion of the cell. This ensures that all 5 mL can fit into the receiver area. Stirring is begun, and temperature is allowed to equilibrate for about 20 minutes. Meanwhile, High Performance Liquid Chromatography (HPLC) vials are labelled by cell number and time point. One must then check again for air bubbles as the solution will degas during heating.
If testing films, one can perform the following next steps: (1) weigh films, punch to match diffusion area (or smaller), reweigh, record pre- and post-punching weight; (2) wet a donor area with approximately 100 μL of phosphate buffer; (3) place film on a donor surface, top with 400 μL of phosphate buffer, and start timers.
For solution studies, one can perform the following steps: (1) using a micropipette, dispense 500 μL of the solution into each donor cell, start the timers; (2) sample 200 μL at the following time points (time=0 min, 20 min, 40 min, 60 min, 120 min, 180 min, 240 min, 300 min, 360 min), and place in labelled HPLC vials, ensure no air is trapped in the bottom of the vial by tapping the closed vials; (3) replace each sample time with 200 uL of receptor media (to maintain 5 mL); (4) When all time points completed, disassemble the cells and dispose of all materials properly.
1. Tissue is freshly excised and shipped (e.g. overnight) at 4° C. 2. The tissue is processed and frozen at −20° C. for up to three weeks prior to use. 3. The tissue is dermatomed to precise thickness. 4. Approximately 5 mL of receiving media is added to the receiving compartment. The media is selected to ensure sink conditions. 5. The tissue is placed in a Franz diffusion cell, which includes a donor compound, a donor chamber, a membrane, sampling port, receptor chamber, stir bar, and a heater/circulator. 6. Approximately 0.5 mL of donor solution is applied or 8 mm circular film and wetted with 500 μL PBS buffer. 7. Samples are taken from the receiving chamber at given intervals and replaced with fresh media.

[2] = Hydrolysis testing after IV exposure, PK parameters; format: in vivo
Experimental: Hydrolysis was analyzed after intravenous (IV) administrations. All Groups were tested at the following time intervals: 0 (predose), 2, 5, 10, 12, 15, 17, 20, 25, 30, 40, 60, 90 and 120 minutes and 3 hr, 4 hr, 6 hr and 8 hr post dose.

[3] = In vitro human whole blood hydrolysis assay; conditions: for hydrolysis in human whole blood compared to L-Dipivefrin: 1 μM, 37° C., up to 6 hours, epinephrine in plasma by LC-MS/MS
Experimental: Fresh healthy human whole blood was collected in blood collection tubes and preincubated for 30 min at 37° C.
Using human whole blood in vitro, epinephrine levels in plasma was measured. Whole blood was collected from 2 donors. Compounds were incubated at 1 μM conc with Stabilizer. Plasma was separated after stopping the enzyme reaction at different timepoints. Samples were extracted and analyzed by LC-MS method.

[4] = Intramuscular study in minipig for prodrugs, epinephrine pharmacokinetic profile; format: in vivo, male Yucatan miniature swine; conditions: epinephrine in plasma, IM 2 mg/animal
Experimental: (§1) Yucatan minipigs (n=4 males per group) were weighed and weights were recorded. The morning of the study, the vascular access port (VAP) of each animal was checked for proper functioning. Minipigs with viable VAP were removed from the home cage and placed in a holding sling. The animals were fasted overnight prior to dose administration and for the duration of PK blood collections.
All the formulations were prepared fresh on the day of dosing and maintained on wet ice until dosing. The dose was injected in the rear hind limb. Prior to administering, the plunger of the syringe was aspirated and observed for any blood that may flow into the syringe. If no blood was observed, it was verified that the needle was in proper placement, and the test articles were administered.
At each specified time-point, 6 mL of whole blood was collected into blood collection tubes containing K2EDTA as the anticoagulant and sodium metabisulfite as stabilizer. Sodium metabisulfite was at a concentration of 8.9 mM, pH 3 (60 μL/6 mL of whole blood of the 890 mM stock solution). SigmaFast (600 μL of SigmaFast 1× solution to 6 mL of whole blood) was added immediately to the tubes as the enzyme arresting agent. The tubes were inverted several times for mixing upon addition of SigmaFast solution. […] The resulting plasma was obtained and stored at approximately […]. The analysis of epinephrine was done using LC-MS/MS method.
as §1, with “Applicants sought to identify epinephrine prodrugs with higher permeability and slower hydrolysis after intramuscular (IM) administrations. […] Yucatan” for “Yucatan”, “minipigs” for “minipigs (n=4 males per group)”, “in the” for “weights were recorded. The”
The dose was injected in the rear hind limb. […] At each specified time-point, 6 mL of whole blood was collected into blood collection tubes containing anticoagulant and stabilizer. Protease inhibitor cocktail was added and the tubes were inverted several times for mixing. All blood samples were centrifuged and the resulting plasma was analyzed for epinephrine using LC-MS/MS method.

[5] = Effect of sodium fluoride on drug absorption; conditions: relative to compositions that did not include NaF
Description: Referring to FIG. 17, the graph indicates the effect of sodium fluoride on drug absorption.

## CCCC(=O)Oc1ccc(C(O)CNC)cc1OC(=O)CCC (centres unmarked) [AQEP-05]
[1]
  permeation: effective permeation
[2]
  conversion to epinephrine after IV administration compared to L-Dipivefrin: Rapid conversion

## CC(C)OC(=O)N(C)CC(O)c1ccc(O)c(O)c1 (centres unmarked) [AQEP-06]
[3]
  hydrolysis in human whole blood compared to L-Dipivefrin: did not show any hydrolysis; also recorded: did not show faster hydrolysis

## CCC(=O)Oc1ccc(C(O)CNC)cc1OC(=O)CC (centres unmarked) [AQEP-10]
[1]
  permeation: effective permeation

## CNCC(OC(=O)C(C)(C)C)c1ccc(OC(=O)C(C)(C)C)c(OC(=O)C(C)(C)C)c1 (centres unmarked) [AQEP-01]
[4]
  Cmax and AUC compared among prodrugs: AQEP-04>AQEP-02>AQEP-03>AQEP-01

## CCOC(=O)Oc1ccc(C(O)CNC)cc1OC(=O)OCC (centres unmarked) [AQEP-12]
[3]
  hydrolysis in human whole blood compared to L-Dipivefrin: faster hydrolysis

## CNCC(O)c1ccc(OC(=O)c2ccccc2)c(OC(=O)c2ccccc2)c1 (centres unmarked) [AQEP-04]
[1]
  permeation: did not permeate as well; also recorded: did not permeate higher than L-Dipivefrin
[4]
  Cmax and AUC compared among prodrugs: higher Cmax and AUC compared to Prodrugs 01, 02 and 03
  Cmax and AUC compared to L-Dipivefrin: less
[3]; 1 μM in human whole blood in vitro
  plasma levels of epinephrine converted from prodrug, compared to L-Dipivefrin: Rapid conversion and higher levels of epinephrine
[3]
  hydrolysis in human whole blood compared to L-Dipivefrin: faster hydrolysis

## CCCCC(=O)Oc1ccc(C(O)CNC)cc1OC(=O)CCCC (centres unmarked) [AQEP-08]
[1]
  permeation: effective permeation
[3]
  hydrolysis in human whole blood compared to L-Dipivefrin: faster hydrolysis

## CNCC(O)c1ccc(OC(=O)C(C)C)c(OC(=O)C(C)C)c1 (centres unmarked) [AQEP-09]
[1]
  permeation: effective permeation
[1]; formulations containing pullulan, compared to L-dipivefrin
  ex vivo permeation of film formulations with varying polysaccharide content: Higher permeation
[5]
  absorption with addition of NaF to the formulation: increased the absorption
[3]
  hydrolysis in human whole blood compared to L-Dipivefrin: faster hydrolysis

## CCC(C)(C)C(=O)Oc1ccc(C(O)CNC)cc1OC(=O)C(C)(C)CC (centres unmarked) [AQEP-02]
[4]
  Cmax and AUC compared among prodrugs: AQEP-04>AQEP-02>AQEP-03>AQEP-01

## CN(CC(O)c1ccc(O)c(O)c1)C(=O)OC(C)(C)C (centres unmarked) [AQEP-07]
[3]
  hydrolysis in human whole blood compared to L-Dipivefrin: did not show any hydrolysis; also recorded: did not show faster hydrolysis

## CNCC(O)c1ccc(OC(=O)N(C)C)c(OC(=O)N(C)C)c1 (centres unmarked) [AQEP-03]
[4]
  Cmax and AUC compared among prodrugs: AQEP-04>AQEP-02>AQEP-03>AQEP-01
[3]
  hydrolysis in human whole blood compared to L-Dipivefrin: minimal hydrolysis; also recorded: did not show faster hydrolysis

## CCCCCC(=O)Oc1ccc(C(O)CNC)cc1OC(=O)CCCCC (centres unmarked) [AQEP-11]
[1]; 5 carbon straight chain
  permeation (flux vs. carbon chain length): permeation dropped
[3]
  hydrolysis in human whole blood compared to L-Dipivefrin: faster hydrolysis
